According to DBAASP:
In brackets after ≈: the same amount, converted by molar mass. Values belong to the compound of their own block, whether it stands above or below them.

Experiments:
Test in all cases: ≥ marks a high value that may be exact or a test limit, other limits are often not marked, values filed in µg/mL are converted to µM
[1] = system: Escherichia coli IFO 3301
[2] = system: Bacillus subtilis IFO 3336
[3] = system: Bacillus subtilis KCTC 3068
[4] = system: Pseudomonas aeruginosa KCTC 1637
[5] = system: Salmonella typhimurium KCTC 1926
[6] = system: Staphylococcus epidermidis KCTC 1917
[7] = system: Staphylococcus aureus CCARM 3001
[8] = system: Pseudomonas aeruginosa CCARM 2095
[9] = system: Pseudomonas aeruginosa CCARM 2109
[10] = system: Staphylococcus aureus KCTC 1621
[11] = system: Escherichia coli KCTC 1682
[12] = system: Staphylococcus aureus CCARM 3543
[13] = system: Streptococcus mutans UA159
[14] = system: Streptococcus mutans UA140
[15] = system: Streptococcus mutans ATCC 25175
[16] = system: Streptococcus salivarius K12
[17] = system: Streptococcus mutans T8
[18] = system: Streptococcus mutans comD
[19] = system: Streptococcus mutans ATCC 104495
[20] = system: Streptococcus sanguinis ATCC 10556
[21] = system: Streptococcus gordonii DL1
[22] = system: Streptococcus gordonii ATCC 10558
[23] = system: Streptococcus sanguinis NY101

SMILES: NC(N)=NCCC[C@H](NC(=O)[C@H](Cc1cnc[nH]1)NC(=O)[C@H](CCCN=C(N)N)NC(=O)[C@H](Cc1cnc[nH]1)NC(=O)[C@H](CCCN=C(N)N)NC(=O)[C@H](Cc1cnc[nH]1)NC(=O)[C@H](CCCN=C(N)N)NC(=O)[C@H](Cc1cnc[nH]1)NC(=O)[C@H](CCCN=C(N)N)NC(=O)[C@@H](N)Cc1cnc[nH]1)C(=O)O [HRHRHRHRHR]
MIC [1]: 6.74 µM (≈ 10 µg/mL)
MIC [2]: 6.74 µM (≈ 10 µg/mL)

MIC [3]: ≥ 32 µM
MIC [4]: 16 µM (≈ 24.2 µg/mL)
MIC [5]: ≥ 32 µM
MIC [6]: ≥ 32 µM
MIC [7]: ≥ 64 µM
MIC [8]: ≥ 64 µM
MIC [9]: ≥ 64 µM
MIC [10]: ≥ 32 µM
MIC [11]: ≥ 32 µM
MIC [12]: ≥ 32 µM
SMILES: CC(C)C[C@H](NC(=O)[C@H](CC(C)C)NC(=O)[C@H](Cc1c[nH]c2ccccc12)NC(=O)[C@H](CCCCN)NC(=O)[C@H](CC(C)C)NC(=O)[C@H](Cc1c[nH]c2ccccc12)NC(=O)[C@H](CC(C)C)NC(=O)[C@H](CC(C)C)NC(=O)[C@H](Cc1c[nH]c2ccccc12)NC(=O)[C@H](CC(C)C)NC(=O)[C@@H](N)CCCCN)C(N)=O [KLWLLWLKWLL]

MIC [13]: 12.1 µM (≈ 24.1 µg/mL)
MIC [14]: ≥ 33.3 µM
MIC [15]: 14.8 µM (≈ 29.5 µg/mL)
MIC [16]: 16.7 µM (≈ 33.3 µg/mL)
MIC [17]: 14.2 µM (≈ 28.3 µg/mL)
MIC [18]: 15.3 µM (≈ 30.5 µg/mL)
MIC [19]: ≥ 33.3 µM
MIC [20]: ≥ 50 µM
MIC [21]: ≥ 41.3 µM
MIC [22]: ≥ 50 µM
MIC [23]: ≥ 33.6 µM
SMILES: CC[C@H](C)[C@H](NC(=O)CNC(=O)[C@H](CCCCN)NC(=O)[C@H](CCCN=C(N)N)NC(=O)[C@@H](NC(=O)[C@@H](NC(=O)[C@H](CCCN=C(N)N)NC(=O)[C@H](CC(C)C)NC(=O)[C@H](CC(N)=O)NC(=O)[C@@H](N)CCCCN)[C@@H](C)CC)[C@@H](C)CC)C(=O)N[C@@H](Cc1cnc[nH]1)C(=O)N[C@H](C(=O)N[C@H](C(=O)N[C@@H](CCCCN)C(=O)N[C@@H](CCCCN)C(=O)N[C@@H](Cc1ccc(O)cc1)C(N)=O)[C@@H](C)CC)[C@@H](C)CC [KNLRIIRKGIHIIKKY]
